Experimental findings from ChEMBL document CHEMBL1201862, “PubChem BioAssay data set” (2004) are described below.

Test systems include 786-0; BT-549; COLO 205; DMS-114; HCT-15; HL-60; Hs-578T; K562; LXFL 529; MCF7; NCI-H460; OVCAR-4; PC-3; SF-295; SF-539; SK-MEL-2; TK-10; UO-31; XF498; NCI/ADR-RES.
Holding throughout (experiment): NCI tumour cell line growth inhibition, 48 h

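Growth conditions: 96-well plates. Treatment: test compound, 48 hours, 5 concentrations. Analysis: linear interpolation between bracketing concentrations; unreached endpoints set to highest concentration. GI50 marks 50% less growth.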 The source made the active and inactive calls. Rule as the data show it: active = GI50 up to about 1.1 µM and inactive = higher.

Regarding `CCCCCCCC(=O)O[C@H]1[C@H]2[C@@H](CC1(C)C)C(=O)[C@]13O[C@H]1C(=O)[C@]1(CO1)[C@]23C`, the GI50 in the experiment on 786-0 is 5.07 µM (inactive); in the experiment on BT-549, 15.5 µM (inactive); in the experiment on COLO 205 it was 1.23 µM (inactive); in the experiment on DMS-114, 3.41 µM (inactive); with HCT-15, 2.96 µM; in the experiment with HL-60, 0.124 µM (active). Moreover, the GI50 in the experiment with Hs-578T is 46 µM (inactive); in the experiment with K562 it was 0.573 µM (active); in the experiment with LXFL 529 it was 1.58 µM (inactive); with MCF7 it was 3.25 µM (inactive); in the experiment on NCI-H460, 5.71 µM (inactive); with OVCAR-4, 4.46 µM (inactive). The GI50 is 17 µM (inactive) in the experiment on PC-3; 15.8 µM (inactive) in the experiment with SF-295; 6.84 µM (inactive) in the experiment with SF-539; 3.7 µM (inactive) with SK-MEL-2; 2.75 µM (inactive) in the experiment on TK-10; 14.3 µM (inactive) in the experiment on UO-31. Also, the GI50 with XF498 was 3.26 µM (inactive).

Take `O=C1CCC(c2ccccc2)=NN1c1nc2ccccc2s1`: the GI50 in the experiment on 786-0 is 38.3 µM (inactive); with BT-549, 27.6 µM (inactive); in the experiment on COLO 205, 13.2 µM (inactive); with DMS-114, 31 µM (inactive); with HCT-15, 29.6 µM; in the experiment with HL-60 it was 41.3 µM (inactive). Also, the GI50 in the experiment with Hs-578T is 36 µM (inactive); in the experiment on K562, 29.8 µM (inactive); in the experiment with LXFL 529, 41.8 µM (inactive); with MCF7, 27 µM (inactive); in the experiment on NCI-H460, 27.7 µM (inactive); with NCI/ADR-RES, 28.7 µM (inactive). In addition, the GI50 is 36.7 µM (inactive) with OVCAR-4; 26.1 µM (inactive) in the experiment on PC-3; 25.7 µM (inactive) in the experiment on SF-295; 24.5 µM (inactive) in the experiment on SF-539; 20.1 µM (inactive) with SK-MEL-2; 35.8 µM (inactive) in the experiment with TK-10. For the same molecule, the GI50 was 31.5 µM (inactive) in the experiment on UO-31 and 31.9 µM (inactive) in the experiment on XF498.
